According to patent US20240254119A1 (THIRD HARMONIC BIO, INC., priority 2022, published 2024):
pIC50: −log10 of the molar value.

What was measured:
[1] = test system: KIT phosphorylation in M-07e cells; experiment: Cell-based KIT phosphorylation in M-07e cells by pKIT ELISA; design: species or system human; conditions: SCF stimulation
How it was run: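 Serum-starved M-07e cells (1 × 10^6/mL, overnight) were treated with compounds (8-point 3-fold series from 1 uM) for 2 h at 37 °C, then stimulated with 100 ng/mL SCF for 5 min. Lysate phospho-KIT was captured on anti-phospho-CD117 plates, detected with anti-pY-HRP, and read at 450 nm against a pc-KIT standard curve.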

MDR1 (MDR1-MDCKII cells) = target: T1, MDR1 (MDR1-MDCKII cells) (Homo sapiens, UniProt P08183); experiment: Permeability in MDR1-MDCKII cells; format: in vitro ADME; conditions: for MDCKII-MDR1: Papp A-B: MDCKII-MDR1, apical to basolateral
T1 construct: host or cells: MDCKII (canine kidney) cells
Description: Exemplary compounds were tested for cell permeability in Caco-2, MDCKII-MDR1 and MDCKII-BCRP cell lines with efflux transporter engagement inferred from the efflux ratios determined. Procedures and results are described below. […] This feature of certain compounds is in part due to efflux transporter engagement. See, for instance, exemplary such compounds included in data tables below.
MDR1-MDCKII cells (obtained from Piet Borst at the Netherlands Cancer Institute) were seeded onto […] membranes (PET) in 96-well insert systems at 2.5×10^5 cells/mL until to 4-7 days for confluent cell monolayer formation.
Test compounds were diluted with the transport buffer (HBSS with 10 mM Hepes, pH7.4) from DMSO stock solution to a concentration of 2.00 μM (DMSO<1%) and applied to the apical or basolateral side of the cell monolayer. Permeation of the test compounds from A to B direction or B to A direction was determined in duplicate. Digoxin was tested at 10.0 μM from A to B direction or B to A direction as well, while nadolol and metoprolol were tested at […] in A to B direction in duplicate. The plate was incubated for 2.5 hours in CO2 incubator at 37±1° C., with 5% CO2 at saturated humidity without shaking. In addition, the efflux ratio of each compound was also determined. Test and reference compounds were quantified by LC-MS/MS analysis based on the peak area ratio of analyte/IS.
After transport assay, Lucifer yellow rejection assay are applied to determine the cell monolayer integrity. Buffers are removed from both apical and basolateral chambers, followed by the addition of 75 μL of 100 μM lucifer yellow in transport buffer and 250 μL transport buffer in apical and basolateral chambers, respectively. The plate is incubated for 30 minutes at 37° C. with 5% CO2 and saturated humidity without shaking. After 30 minutes incubation, 20 μL of lucifer yellow samples are taken from the apical sides, followed by the addition of 60 μL of Transport Buffer. And then 80 μL of lucifer yellow samples are taken from the basolateral sides. The relative fluorescence unit (RFU) of lucifer yellow is measured at 425/528 nm (excitation/emission) with an Envision plate reader.
The apparent permeability coefficient Papp (cm/s) was calculated using the equation: […]
Where dCr/dt is the cumulative concentration of compound in the receiver chamber as a function of time (μM/s); Vr is the solution volume in the receiver chamber (0.075 mL on the apical side, 0.25 mL on the basolateral side); A is the surface area for the transport, i.e. 0.0804 cm^2 for the area of the monolayer; C0 is the initial concentration in the donor chamber (μM). The efflux ratio was calculated using the equation: […]
Where Vd is the volume in the donor chambers (0.075 mL on the apical side, 0.25 mL on the basolateral side); Cd and Cr are the final concentrations of transport compound in donor and receiver chambers, respectively.

T1 sequence (P08183 whole entry): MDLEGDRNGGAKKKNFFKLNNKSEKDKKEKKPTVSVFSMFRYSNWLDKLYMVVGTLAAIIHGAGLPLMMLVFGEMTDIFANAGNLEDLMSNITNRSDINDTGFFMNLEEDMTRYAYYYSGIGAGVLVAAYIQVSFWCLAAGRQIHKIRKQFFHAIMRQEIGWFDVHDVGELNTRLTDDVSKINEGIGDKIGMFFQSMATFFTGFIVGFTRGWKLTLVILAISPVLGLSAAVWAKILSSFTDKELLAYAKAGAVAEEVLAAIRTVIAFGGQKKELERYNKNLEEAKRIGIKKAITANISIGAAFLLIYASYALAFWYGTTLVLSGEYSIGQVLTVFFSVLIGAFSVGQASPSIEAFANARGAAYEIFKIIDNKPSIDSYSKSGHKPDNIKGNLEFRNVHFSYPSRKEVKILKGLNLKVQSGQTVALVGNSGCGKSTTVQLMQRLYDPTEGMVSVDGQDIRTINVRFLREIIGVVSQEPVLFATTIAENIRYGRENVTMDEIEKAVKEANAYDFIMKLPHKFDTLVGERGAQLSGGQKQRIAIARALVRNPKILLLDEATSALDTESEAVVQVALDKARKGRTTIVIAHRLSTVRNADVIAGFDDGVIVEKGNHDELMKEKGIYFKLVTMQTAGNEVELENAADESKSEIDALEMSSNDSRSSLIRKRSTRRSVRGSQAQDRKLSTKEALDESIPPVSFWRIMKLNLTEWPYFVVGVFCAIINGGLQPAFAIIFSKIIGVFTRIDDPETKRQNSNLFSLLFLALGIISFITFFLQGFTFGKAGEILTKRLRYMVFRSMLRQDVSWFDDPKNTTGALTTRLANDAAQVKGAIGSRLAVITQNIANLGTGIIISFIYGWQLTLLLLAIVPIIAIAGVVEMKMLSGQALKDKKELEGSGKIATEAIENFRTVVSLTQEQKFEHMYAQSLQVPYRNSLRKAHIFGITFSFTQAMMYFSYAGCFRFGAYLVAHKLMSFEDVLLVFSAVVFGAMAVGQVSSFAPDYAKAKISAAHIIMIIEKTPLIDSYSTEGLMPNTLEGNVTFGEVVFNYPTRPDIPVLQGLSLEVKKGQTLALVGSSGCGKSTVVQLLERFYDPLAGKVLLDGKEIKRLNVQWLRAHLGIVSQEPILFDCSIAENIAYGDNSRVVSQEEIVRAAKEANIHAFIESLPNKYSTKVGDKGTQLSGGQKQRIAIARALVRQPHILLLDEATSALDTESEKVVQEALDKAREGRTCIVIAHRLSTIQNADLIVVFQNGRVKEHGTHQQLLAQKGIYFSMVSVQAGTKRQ

Compound	pIC50 [1]	MDCKII-MDR1: Efflux Ratio (MDR1 (MDR1-MDCKII cells))	MDCKII-MDR1: Papp A-B (MDR1 (MDR1-MDCKII cells))
Cc1ccc(-c2noc(CC(C)(C)O)n2)cc1NC(=O)c1cnc2ccccn12 [Compound I-336]	≥ 7.30	1.85	15.4 10^−6 cm/s
COC(=O)N1CC(c2nc(-c3ccc(C(F)F)c(NC(=O)c4cnc5ccccn45)c3)no2)C1 [Compound I-225]	≥ 7.30	1.1	15.9 10^−6 cm/s
Cc1ccc(-c2noc([C@H]3C[C@@H]3F)n2)cc1NC(=O)c1cnc2cc(OC(C)C)ccn12 [Compound I-88]	≥ 7.30	0.86	3.92 10^−6 cm/s
Cc1ccc(-c2noc(CCO)n2)cc1NC(=O)c1cnc2ccccn12 [Compound I-306]	≥ 7.30	2.88	14.5 10^−6 cm/s
CCCS(=O)(=O)N1CC(c2nc(-c3ccc(Cl)c(NC(=O)c4cnc5ccccn45)c3)no2)C1 [Compound I-220]	6.30 to 7.30	0.71	16.3 10^−6 cm/s
Cc1ccc(-c2noc([C@H]3C[C@@H]3F)n2)cc1NC(=O)c1cnc2cc(OC(F)(F)F)ccn12 [Compound I-87]	≥ 7.30	0.74	4.58 10^−6 cm/s
Cc1ccc(-c2noc(C3CCC3F)n2)cc1NC(=O)c1cnc2ccccn12 (racemic) [Compound I-376]	≥ 7.30	0.54	8.41 10^−6 cm/s
Cc1nc(-c2ccc(Cl)c(NC(=O)c3cnc4ccccn34)c2)no1 [Compound I-172]	5.30 to 6.30	0.46	22.7 10^−6 cm/s
Cc1ccc(-c2noc(C(C)NS(C)(=O)=O)n2)cc1NC(=O)c1cnc2ccccn12 (single isomer, unassigned) [Compound I-237]	6.30 to 7.30	20.5	1.43 10^−6 cm/s
Cc1ccc(-c2noc([C@H]3CC(F)(F)CN3)n2)cc1NC(=O)c1cnc2ccccn12 [Compound I-359]	6.30 to 7.30	0.81	21.4 10^−6 cm/s
COCCOCc1ccn2c(C(=O)Nc3cc(-c4noc([C@H]5C[C@@H]5F)n4)ccc3C)cnc2c1 [Compound I-84]	≥ 7.30	1.78	12.1 10^−6 cm/s
Cc1ccc(-c2noc(C3CC(C)(F)C3)n2)cc1NC(=O)c1cnc2ccccn12 (stereo not drawn) [Compound I-387]	≥ 7.30	0.48	7.59 10^−6 cm/s
Cc1ccc(-c2noc(CC(O)C(F)F)n2)cc1NC(=O)c1cnc2ccccn12 (stereo not drawn) [Compound I-114]	≥ 7.30	3.67	7.8 10^−6 cm/s
Cc1ccc(-c2noc(C3COC3)n2)cc1NC(=O)c1cnc2ccccn12 [Compound I-138]	≥ 7.30	1.01	22 10^−6 cm/s
O=C(Nc1cc(-c2noc([C@H]3C[C@@H]3F)n2)ccc1Cl)c1cnc2ccccn12 [Compound I-341]	6.30 to 7.30	0.82	17.7 10^−6 cm/s
COC(=O)N1CC(c2nc(-c3ccc(C)c(NC(=O)c4cnn5ccc(Br)cc45)c3)no2)C1 [Compound I-280]	≥ 7.30	1.19	11.8 10^−6 cm/s
Cc1ccc(-c2noc([C@H]3C[C@@H]3F)n2)cc1NC(=O)c1cnc2ccc(F)cn12 [Compound I-288]	6.30 to 7.30	0.51	20.6 10^−6 cm/s
Cc1ccc(-c2noc([C@H](C)O)n2)cc1NC(=O)c1cnc2ccccn12 [Compound I-271]	≥ 7.30	1.36	18.5 10^−6 cm/s
Cc1ccc(-c2noc(C3CC(F)C3)n2)cc1NC(=O)c1cnc2ccccn12 (stereo not drawn) [Compound I-381]	≥ 7.30	0.55	5.95 10^−6 cm/s
Cc1ccc(-c2noc(C3CCC(F)C3)n2)cc1NC(=O)c1cnc2ccccn12 (racemic) [Compound I-319]	≥ 7.30	0.76	10 10^−6 cm/s
